Where two headings read alike, the source gives them in different places.
What was measured:
[1] = test system: Becap-37 (human breast cancer cell); experiment: MTT cell viability, human solid tumor cells; format: cell-based; conditions: 72 h; for IC50: read-out: concentration (IC50 value of 72 hours)
Protocol: (§1) Well-growing cells of above were obtained and inoculated into wells of a 96-well cell culture plate at 5000 cells/well. Individual compounds of various concentrations were added, mixed uniformly, and incubated (5% CO2) at 37° C. for 72 hours. Then the cell viability was determined by the MTT method.
(§2) b) Determine the inhibitory effects of TTD in combination with Ada A on the human solid tumor cells. The pretreatment of the cells was the same as in a). The control group was not treated with the compound while administered. […] As to the combination group, two compounds were added together into the same group of wells, with the fmal concentration being the concentration to which the IC50 of the single drugs correspond. After 72 hours of incubation, the MTT method was used for the determination of cell viability. The cell viability of the control group was set to 100% in this experiment, and the TTD, Ada A single drug and combined effects on cell viability (%) were calculated.

[2] = test system: Hela (human cervical cancer cell); experiment: MTT cell viability, human solid tumor cells; format: cell-based; conditions: 72 h; for IC50: read-out: concentration (IC50 value of 72 hours)
Protocol: as §1, §2

[3] = test system: Huh7 (human liver cancer cell); experiment: MTT cell viability, human solid tumor cells; format: cell-based; conditions: for IC50: read-out: concentration (IC50 value of 72 hours)
Protocol: as §1, §2

[4] = test system: RKO (human colon adenocarcinoma cell); experiment: MTT cell viability, human solid tumor cells; format: cell-based; conditions: 72 h; for IC50: read-out: concentration (IC50 value of 72 hours)
Protocol: as §1, §2

[5] = Example 5: body weight of tumor-bearing nude mice; format: in vivo, BALB/c-nu nude mice
Protocol: Under sterile conditions, the above tumor cells were collected in the logarithmic growth phase. A549 was injected by subcutaneous injection in an amount of 6×10 6/0.2 mL/nude mice (cell viability>90%) into the right subaxillary of the nude mice, thus establishing transplated tumor models of lung cancer in nude mice. The mice were administered from the second day after the inoculation. […] Each mouse was intragastrically administered in 0.4 ml each time and 2 times a day, at 8:00, and 14:00. The administrations were successive for 14 days. The day before administration was deemed as Day 0 and the body weight and tumor size of the mice were determined every 5 days to produce a dynamic plot on body weight and tumor growth. On Day 20, the mice were sacrificed and the tumors were taken out and weighed. The tumor inhibition rate (%) was calculated after the effect of the medicament based on a tumor inhibition rate of the control group being zero.
(§3) The values determined were presented as mean±standard error (Mean±SD). The experimental data for each group was analyzed with One-way ANOVA method in the SPSS 18.0 statistical software, and p<0.05 means that the differences are statistically significant.

[6] = test system: leukemic cell lines L1210 and P388; conditions: mice inoculated with L1210 and P388, 0.5-5 mg/kg/day for 10 consecutive days; cited from earlier work
[7] = test system: mouse leukemia P388 and human gastric cancer cell line SGC-7901; conditions: 0.01 μg/ml, in vitro; cited from earlier work
[8] = test system: leukemia mice; conditions: cited from earlier work
[9] = test system: acute lymphoblastic leukemia (ANLL); conditions: initial treatment of ANLL; cited from earlier work
[10] = rats, cited from earlier work
[11] = test system: A549 transplanted tumor (human non-small cell lung cancer cell line); experiment: Example 4: TTD on A549 transplanted tumor in nude mice; format: in vivo, BALB/c-nu nude mice; conditions: A549, TTD 50 mg/kg/time intragastric, 3 times a day, 10 days, Day 24; for tumor inhibition rate: control = 0
Protocol: (§4) Under sterile conditions, the above tumor cells were collected in the logarithmic growth phase. A549 was injected by subcutaneous injection in an amount of 1×10 7/0 2 mL/nude mice (cell viability>90%) into the right subaxillary of the nude mice, and Hep G2 was injected by subcutaneous injection in an amount of 1×10^7/0.2 mL/nude mice (cell viability>90%) into the left subaxillary of the nude mice thus establishing transplated tumor models of lung cancer and liver cancer respectively in nude mice. The administration was carried out from the second day after the inoculation. The experimental group was intragastrically administered at the experimentally designed amount, the negative control group is intragastrically administered with sterile water, and the positive control group was intragastrically administered with Jef. Each mouse was intragastrically administered in 0.4 ml each time and 3 times a day, at 8:00, 14:00 and 20:00. The administrations were successive for 10 days. The day before administration was deemed as Day 0 and the body weight and tumor size of the mice were determined every 5 days to produce a dynamic plot on body weight and tumor growth. On Day 24, the mice were sacrificed and the tumors were taken out and weighed. The tumor inhibition rate (%) was calculated after the effect of the medicament based on a tumor inhibition rate of the control group being zero.
as §3

[12] = test system: Hep G2 transplanted tumor (human hepatoma carcinoma cell); experiment: Example 4: TTD on Hep G2 transplanted tumor in nude mice; format: in vivo, BALB/c-nu nude mice; conditions: Hep G2, TTD 50 mg/kg/time intragastric, 3 times a day, 10 days, Day 24
Protocol: as §4, with “The experimental group was intragastrically administered at the experimentally designed amount, the negative control group is intragastrically administered with sterile water, and the positive control group was intragastrically administered with Jef. Each mouse was intragastrically administered in 0.4 ml each time and 3 times a day, at 8:00, 14:00 and 20:00. The administrations were successive for 10 days.” left out, “On Day 24, the mice were sacrificed and the tumors were taken out and weighed.” left out
as §3

[13] = Example 4: body weight of tumor-bearing nude mice; format: in vivo, BALB/c-nu nude mice
Protocol: as §4, §3

## CC[C@@]1(O)C[C@H](O[C@H]2C[C@H](N(C)C)[C@H](O[C@H]3C[C@H](O)[C@H](O[C@H]4CCC(=O)[C@H](C)O4)[C@H](C)O3)[C@H](C)O2)c2c(cc3c(c2O)C(=O)c2c(O)cccc2C3=O)[C@H]1C(=O)OC [Acla A, aclarubicin A]
[1]; read-out: CV (cell viability)
  viability at 0.5 µg/mL: 44.8%
[1]
  IC50: 0.5 µg/mL
[2]; HeLa, read-out: CV (cell viability)
  viability at 0.095 µg/mL: 52.7%
[2]; HeLa
  IC50: 0.095 µg/mL
[3]; Huh-7, 72 h, read-out: CV (cell viability)
  viability at 0.05 µg/mL: 44.5%
[3]; Huh-7, 72 h
  IC50: 0.05 µg/mL
[4]; read-out: CV (cell viability)
  viability at 0.04 µg/mL: 49.6%
[4]
  IC50: 0.04 µg/mL
[5]; Acla A 1 mg/kg/time intragastric, 2 times a day, 14 days, Day 20, Mean ± SD, n=3
  body weight, Final: 18.5 ± 1.10 g
[5]; Acla A 1 mg/kg/time intragastric, 2 times a day, 14 days, Mean ± SD, n=3
  body weight, Initial: 21.0 ± 0.23 g
[5]; Acla A 1 mg/kg/time, during administration, recovered gradually after termination
  dynamic variation of the body weight (in words): partial reduction in the body weight
[6]
  survival rate increased, compared with mice without antibiotics injection: 150%
[7]
  cloning formation inhibited: 65.4%
[8]
  prolonging the lifetime of the mice: 143%
[9]
  complete remission rate (CR): up to 70%
[10]; intravenous injection
  half-life t1/2: 16 to 21 h
[10]; oral administration
  bioavailability: 35%
  biological half-life t1/2: 36.5 h

## COc1ccc2cc1Oc1ccc(cc1)C[C@H]1c3cc(c(OC)cc3CCN1C)Oc1c(OC)c(OC)cc3c1[C@H](C2)N(C)CC3 [TTD, tetrandrine]
[1]; Becap-37, TTD 3 μg/mL, MTT, control = 100%, read-out: CV (cell viability)
  viability at 3 µg/mL: 56.1%
[1]; Becap-37, single compound, MTT
  IC50: 3 µg/mL
[2]; Hela, TTD 1.25 μg/mL, MTT, control = 100%, read-out: CV (cell viability)
  viability at 1.25 µg/mL: 47%
[2]; Hela, single compound, MTT
  IC50: 1.25 µg/mL
[3]; Huh-7, Huh7, TTD 3 μg/mL, 72 h, MTT, control = 100%, read-out: CV (cell viability)
  viability at 3 µg/mL: 54%
[3]; Huh-7, Huh7, single compound, 72 h, MTT
  IC50: 3 µg/mL
[4]; RKO, TTD 1.5 μg/mL, MTT, control = 100%, read-out: CV (cell viability)
  viability at 1.5 µg/mL: 45.3%
[4]; RKO, single compound, MTT
  IC50: 1.5 µg/mL
[11]; Mean ± SD
  Mass of tumor: 0.23 ± 0.35 g
[11]
  tumor inhibition rate: up to 38%
[11]; listed as TTD50
  tumor inhibition rate: 38.02%
[12]; Mean ± SD
  Mass of tumor: 0.53 ± 0.32 g
[12]; control = 0
  tumor inhibition rate: −33.36%
[13]; TTD 50 mg/kg/time intragastric, 3 times a day, 10 days, Day 24, Mean ± SD, n=3
  body weight, Final: 20.6 ± 1.74 g
[13]; TTD 50 mg/kg/time intragastric, 3 times a day, 10 days, Mean ± SD, n=3
  body weight, Initial: 21.1 ± 0.25 g
[13]; TTD 50 mg/kg/time, during administration, recovered gradually after termination
  dynamic variation of the body weight (in words): partial reduction in the body weight

Source: patent US20150290232A1, “DRUG COMPOSITION FOR TREATING TUMORS AND APPLICATION THEREOF” (priority 2012, published 2015)
